Holding throughout (type): in vivo
Series [1] deals with passive cutaneous anaphylactic (PCA) reaction. As to the kind of experiment: suppression of passive cutaneous anaphylactic (PCA) reaction, intravenous administration. The note with it: Rattus norvegicus, rats, i.v., just before injection of allergen, read-out: ED 100 (i.v.): intravenous dose which produces 100% inhibition of the PCA reaction. The source says:
(§1) In pharmacological tests the new compounds suppress the passive cutaneous anaphylactic (PCA) reaction resulting from combination of tissue-fixed reaginic antibodies with the appropriate antigenic material (termed reagin-allergen combination) and carried out in an essentially similar manner to that described by Ogilvie [Nature (Lond.), (1964), 204, 91-92; Immunology, (1967), 12, 112-131]. In the method used to test these compounds sera were obtained from rats which had been infected with larvae of the nematode parasite Nippostrongylus brasiliensis; as a result of the parasitic infestation reaginic antibodies are elaborated in the host mammal and are found in sera removed from such animals. Other, non-infected, rats received intradermal injections of appropriate dilutions of such sera and were then given the allergenic material along with Evans' blue dye intravenously forty-eight hours later.
(§2) The allergenic material consisted of supernatant fluid after centrifugation of homogenates of adult Nippostrongylus brasiliensis worms which had been macerated in Tyrode's solution. The sites of PCA reactions were visualised by the effusion of Evans' blue dye from the circulation into those areas as a result of increased capillary permeability caused by the release of biologically-active substances from cells where reagin-allergen combination had occurred. The new compounds when given intravenously to the rats just before injection of allergen, or administered orally thirty minutes before intravenous injection of allergen, were able to prevent the development of the PCA reaction, as shown below in Table I and Table II.

Series [2] shares this test system. The series is described as follows: suppression of passive cutaneous anaphylactic (PCA) reaction, oral administration. The note with it: Rattus norvegicus, rats, p.o., thirty minutes before intravenous injection of allergen, read-out: ED 50 (p.o.): oral dose which produces 50% inhibition of the PCA reaction.
Text: as §1, §2

Series [3] in a line: oral toxicity in mice. The note with it: 1000 mg/kg animal body weight, observation period of 3 days.

Turning to `CCC(=O)c1cc(CC)cc(NC(=O)c2nnn[nH]2)c1O` [AA, 5'-ethyl-2'-hydroxy-3'-propionyltetrazole-5-carboxanilide], the ED100 in series [1] is 0.01 mg/kg. In series [2], the ED50 came out at 1.3 mg/kg.

In the case of `CCC(=O)c1cc(C)cc(NC(=O)c2nnn[nH]2)c1O` [BB, 2'-hydroxy-5'-methyl-3'-propionyltetrazole-5-carboxanilide], in series [1], the ED100 was 0.02 mg/kg. Further, in series [2], the ED50 turned out to be 0.88 mg/kg.

`COc1cc(Br)cc(NC(=O)c2nnn[nH]2)c1O` [CC, 5'-bromo-2'-hydroxy-3'-methoxytetrazole-5-carboxanilide]: the ED100 in series [1] turned out to be 0.05 mg/kg. In series [2], the ED50 stood at 16 mg/kg. As to `O=C(Nc1ccccc1O)c1nnn[nH]1` [Compound A, 2'-hydroxytetrazole-5-carboxanilide], in series [1], the ED100 worked out at 0.2 mg/kg. Besides, the ED50 in series [2] worked out at 5.5 mg/kg. As for `CC(=O)c1cc(C)cc(NC(=O)c2nnn[nH]2)c1O` [Compound B, 3'-acetyl-2'-hydroxy-5'-methyltetrazole-5-carboxanilide], in series [3], the “deaths during observation period” value is given as “no deaths occurred”. Besides, the ED100 in series [1] turned out to be 0.01 mg/kg. In series [2], the ED50 came out at 0.06 mg/kg. For `CCc1cccc(NC(=O)c2nnn[nH]2)c1O` [Compound C, 3'-ethyl-2'-hydroxytetrazole-5-carboxanilide], the ED100 in series [1] was found to be 0.1 mg/kg. The ED50 in series [2] was found to be 0.7 mg/kg. Turning to `CCc1cc(NC(=O)c2nnn[nH]2)c(O)c(C(C)=O)c1` [Compound D, 3'-acetyl-5'-ethyl-2'-hydroxytetrazole-5-carboxanilide], the ED100 in series [1] stood at 0.01 mg/kg. For the same compound, in series [2], the ED50 was determined as 0.19 mg/kg. Regarding `CC(=NO)c1cc(C)cc(NC(=O)c2nn[nH]n2)c1O` [Compound DD, 2'-hydroxy-3'-(1-hydroxyimino)ethyl-5'-methyltetrazole-5-carboxanilide], the ED100 in series [1] came to 0.002 mg/kg.

Consider `CC(=O)c1cc([N+](=O)[O-])cc(NC(=O)c2nnn[nH]2)c1O` [E, 3'-acetyl-2'-hydroxy-5'-nitrotetrazole-5-carboxanilide], for which the ED100 in series [1] was determined as 0.02 mg/kg. In series [2], the ED50 was determined as 0.04 mg/kg. In the case of `CON=C(C)c1cc(C)cc(NC(=O)c2nn[nH]n2)c1O` [EE, 2'-hydroxy-3'-(1-methoxyimino)ethyl-5'-methyltetrazole-5-carboxanilide], the ED100 in series [1] turned out to be 0.02 mg/kg. For the compound `Cc1cc(NC(=O)c2nnn[nH]2)c(O)c(C(=O)C(C)C)c1` [G, 2'-hydroxy-3'-isobutyryl-5'-methyltetrazole-5-carboxanilide], the ED100 in series [1] worked out at 0.02 mg/kg. In addition, the ED50 in series [2] was 3.2 mg/kg.

On to `CC(=O)c1cc(C#N)cc(NC(=O)c2nnn[nH]2)c1O` [H, 3'-acetyl-5'-cyano-2'-hydroxytetrazole-5-carboxanilide], for which the ED100 in series [1] was 0.01 mg/kg. The ED50 in series [2] is 0.4 mg/kg. For the compound `Cc1cc(NC(=O)c2nnn[nH]2)c(O)c(C(=O)C2CC2)c1` [I, 3'-cyclopropylcarbonyl-2'-hydroxy-5'-methyltetrazole-5-carboxanilide], the “deaths during observation period” value in series [3] is “no deaths occurred”. Besides, in series [1], the ED100 came to 0.02 mg/kg. In the case of `CC(=O)c1cc(F)cc(NC(=O)c2nnn[nH]2)c1O` [K, 3'-acetyl-5'-fluoro-2'-hydroxytetrazole-5-carboxanilide], the ED100 in series [1] was 0.01 mg/kg.

Take `CC(=O)c1cc(Br)cc(NC(=O)c2nnn[nH]2)c1O` [L, 3'-acetyl-5'-bromo-2'-hydroxytetrazole-5-carboxanilide]: in series [1], the ED100 amounted to 0.05 mg/kg. As to `COc1cc(NC(=O)c2nnn[nH]2)c(O)c(C(C)=O)c1` [M, 3'-acetyl-2'-hydroxy-5'-methoxytetrazole-5-carboxanilide], in series [1], the ED100 worked out at 0.01 mg/kg. Consider `CCC(=O)c1cc(C#N)cc(NC(=O)c2nnn[nH]2)c1O` [N, 5'-cyano-2'-hydroxy-3'-propionyltetrazole-5-carboxanilide], for which, in series [1], the ED100 is 0.02 mg/kg. Consider `CC(=O)c1cc(N)cc(NC(=O)c2nnn[nH]2)c1O` [P, 3'-acetyl-5'-amino-2'-hydroxytetrazole-5-carboxanilide], for which the ED100 in series [1] is 0.05 mg/kg. Take `COc1cccc(NC(=O)c2nnn[nH]2)c1O` [R, 2'-hydroxy-3'-methoxytetrazole-5-carboxanilide]: the ED100 in series [1] is 0.02 mg/kg. Also, the ED50 in series [2] was 2.9 mg/kg. With `CCc1cc(NC(=O)c2nnn[nH]2)c(O)c(OC)c1` [S, 5'-ethyl-2'-hydroxy-3'-methoxytetrazole-5-carboxanilide], in series [1], the ED100 was determined as 0.01 mg/kg. The ED50 in series [2] is 1.8 mg/kg.

Regarding `COc1cc(C)cc(NC(=O)c2nnn[nH]2)c1O` [T, 2'-hydroxy-3'-methoxy-5'-methyltetrazole-5-carboxanilide], the ED100 in series [1] is 0.02 mg/kg. Further, in series [2], the ED50 was found to be 6.5 mg/kg.

Consider `CCCC(=O)c1cc(C)cc(NC(=O)c2nnn[nH]2)c1O` [U, 3'-butyryl-2'-hydroxy-5'-methyltetrazole-5-carboxanilide], for which the ED100 in series [1] is 0.05 mg/kg. Consider `Cc1cc(NC(=O)c2nnn[nH]2)c(O)c(C(=O)N(C)C)c1` [V, 3'-(N,N-dimethylcarbamoyl)-2'-hydroxy-5'-methyltetrazole-5-carboxanilide], for which the ED100 in series [1] stood at 0.2 mg/kg. `COC(=O)c1cc(C)cc(NC(=O)c2nnn[nH]2)c1O` [W, 2'-hydroxy-3'-methoxycarbonyl-5'-methyltetrazole-5-carboxanilide]: in series [1], the ED100 is 0.05 mg/kg. In addition, the ED50 in series [2] is 5.6 mg/kg. Turning to `CCOC(=O)c1cc(C)cc(NC(=O)c2nnn[nH]2)c1O` [X, 3'-ethoxycarbonyl-2'-hydroxy-5'-methyltetrazole-5-carboxanilide], the ED100 in series [1] came out at 0.01 mg/kg. Further, the ED50 in series [2] stood at 36 mg/kg. For the compound `CCCc1cc(NC(=O)c2nnn[nH]2)c(O)c(C(C)=O)c1` [Y, 3'-acetyl-2'-hydroxy-5'-propyltetrazole-5-carboxanilide], the ED100 in series [1] was 0.01 mg/kg. Besides, the ED50 in series [2] is 0.46 mg/kg. With `CC(=O)c1cccc(NC(=O)c2nnn[nH]2)c1O` [Z, 3'-acetyl-2'-hydroxytetrazole-5-carboxanilide], in series [1], the ED100 was found to be 0.005 mg/kg. Besides, the ED50 in series [2] is 0.06 mg/kg.

The record behind these values is patent US4442115A, “2'Hydroxy tetrazole-5-carboxanilides and anti-allergic use thereof” (May & Baker Limited, priority 1977, dated 1984).
